Experimental findings from patent US7880007B2, “Bicyclic substituted phenyl piperidine modulators of muscarinic receptors” (Vertex Pharmaceuticals Incorporated, priority 2004, dated 2011) are described below.

Type in all cases: cell-based
Assay [1] addresses T1, M1 muscarinic receptor (Homo sapiens, UniProt P11229).
T1 construct: expressed in transfected cells; host or cells: CHO (M1-CHO)
T1 sequence (P11229 1-460): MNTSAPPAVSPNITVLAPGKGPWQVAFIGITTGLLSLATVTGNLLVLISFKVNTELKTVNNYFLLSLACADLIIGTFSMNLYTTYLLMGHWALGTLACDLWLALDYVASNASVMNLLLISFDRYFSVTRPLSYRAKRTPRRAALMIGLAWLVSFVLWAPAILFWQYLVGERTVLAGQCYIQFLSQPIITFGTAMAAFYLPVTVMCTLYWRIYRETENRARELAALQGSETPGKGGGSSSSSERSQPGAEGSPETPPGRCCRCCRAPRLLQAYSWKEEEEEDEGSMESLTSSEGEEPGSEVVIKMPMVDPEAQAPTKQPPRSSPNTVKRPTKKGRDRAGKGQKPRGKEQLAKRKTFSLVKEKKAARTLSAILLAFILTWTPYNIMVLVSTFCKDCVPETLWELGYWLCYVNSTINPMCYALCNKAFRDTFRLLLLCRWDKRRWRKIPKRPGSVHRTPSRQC
Put plainly: Functional mobilization of intracellular calcium (FLIPR), M1-CHO cells. The conditions noted are these: for Emax: 100% efficacy = maximum response obtained with the Carbachol control; for M1 Activity: M1-CHO cells, calcium mobilization (FLIPR). Summed up:
(§1)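 CHO cells expressing human M1–M4 receptors loaded with Fluo-3 AM or Calcium 3 dye (1 mM probenecid, pH 7.4); 0.5% DMSO final. Agonist mode: compound added directly; antagonist mode: 15 min pre-incubation or co-application, then carbachol at EC80. Fluorescence read 60 s on FLIPR; efficacy relative to carbachol maximum.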
(A change in cytosolic calcium serves as a functional read-out for many receptors and channels.)

Assay [2] concerns the target T2, M2 muscarinic receptor (Homo sapiens, UniProt P08172).
T2 construct: expressed in transfected cells; host or cells: CHO (M2-CHO)
T2 sequence (P08172 1-466): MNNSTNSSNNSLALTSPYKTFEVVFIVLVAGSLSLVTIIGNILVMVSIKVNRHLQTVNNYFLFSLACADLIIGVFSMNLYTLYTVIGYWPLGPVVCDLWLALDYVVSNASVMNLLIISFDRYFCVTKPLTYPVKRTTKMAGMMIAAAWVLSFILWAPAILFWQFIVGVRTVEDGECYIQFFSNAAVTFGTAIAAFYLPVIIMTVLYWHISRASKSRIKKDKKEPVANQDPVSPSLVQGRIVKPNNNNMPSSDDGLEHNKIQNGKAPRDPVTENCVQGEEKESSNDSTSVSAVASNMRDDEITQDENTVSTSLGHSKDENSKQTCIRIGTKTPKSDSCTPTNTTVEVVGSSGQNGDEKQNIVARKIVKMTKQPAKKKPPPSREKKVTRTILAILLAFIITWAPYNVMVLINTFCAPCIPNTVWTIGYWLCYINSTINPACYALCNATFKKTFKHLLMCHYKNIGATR
Put plainly: Functional mobilization of intracellular calcium (FLIPR), M2-CHO cells. The conditions noted are these: for Emax: 100% efficacy = maximum response obtained with the Carbachol control; for M2 Activity: M2-CHO cells, calcium mobilization (FLIPR). In a few lines: as §1

Assay [3] has as its target T3, M3 muscarinic receptor (Homo sapiens, UniProt P20309).
T3 construct: expressed in transfected cells; host or cells: CHO (M3-CHO)
Briefly: Functional mobilization of intracellular calcium (FLIPR), M3-CHO cells. The conditions noted are these: for Emax: 100% efficacy = maximum response obtained with the Carbachol control; for M3 Activity: M3-CHO cells, calcium mobilization (FLIPR). Summed up:
as §1

In assay [4] the target is T4, M4 muscarinic receptor (Homo sapiens, UniProt P08173).
T4 construct: expressed in transfected cells; host or cells: CHO (M4-CHO)
T4 sequence (P08173 1-479): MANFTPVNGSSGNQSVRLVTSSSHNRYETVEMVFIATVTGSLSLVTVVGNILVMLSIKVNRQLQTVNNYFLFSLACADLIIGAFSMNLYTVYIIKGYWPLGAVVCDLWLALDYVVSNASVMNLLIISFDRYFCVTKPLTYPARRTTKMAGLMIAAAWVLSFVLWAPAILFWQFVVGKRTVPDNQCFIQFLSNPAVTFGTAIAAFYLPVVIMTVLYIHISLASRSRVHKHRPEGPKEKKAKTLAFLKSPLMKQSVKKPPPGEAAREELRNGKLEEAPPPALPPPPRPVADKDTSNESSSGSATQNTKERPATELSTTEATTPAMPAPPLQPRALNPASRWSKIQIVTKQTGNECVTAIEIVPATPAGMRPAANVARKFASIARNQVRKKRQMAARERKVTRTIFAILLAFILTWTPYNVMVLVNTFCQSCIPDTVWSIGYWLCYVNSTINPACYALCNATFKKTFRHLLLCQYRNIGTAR
Put plainly: Functional mobilization of intracellular calcium (FLIPR), M4-CHO cells. The conditions noted are these: for Emax: 100% efficacy = maximum response obtained with the Carbachol control; for M4 Activity: M4-CHO cells, calcium mobilization (FLIPR). Summed up: as §1

In general, Emax refers to the greatest response seen or fitted, relative to the assay's reference.

T3 sequence (P20309 whole entry): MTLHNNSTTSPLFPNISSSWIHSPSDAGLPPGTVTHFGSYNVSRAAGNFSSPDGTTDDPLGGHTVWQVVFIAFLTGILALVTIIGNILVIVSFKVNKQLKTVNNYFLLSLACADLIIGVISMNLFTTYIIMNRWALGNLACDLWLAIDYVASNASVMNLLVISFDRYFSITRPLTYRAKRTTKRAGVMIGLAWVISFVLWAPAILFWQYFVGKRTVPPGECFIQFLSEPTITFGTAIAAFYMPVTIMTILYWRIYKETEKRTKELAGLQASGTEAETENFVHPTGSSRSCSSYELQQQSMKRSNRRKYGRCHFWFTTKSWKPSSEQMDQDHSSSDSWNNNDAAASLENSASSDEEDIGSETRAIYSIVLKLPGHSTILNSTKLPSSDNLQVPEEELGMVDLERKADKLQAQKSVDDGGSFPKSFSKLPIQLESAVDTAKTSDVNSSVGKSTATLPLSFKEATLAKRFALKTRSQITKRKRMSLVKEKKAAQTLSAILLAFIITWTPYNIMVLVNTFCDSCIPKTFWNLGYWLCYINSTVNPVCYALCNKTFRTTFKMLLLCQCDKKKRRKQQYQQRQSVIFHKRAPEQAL

With `COc1ccccc1C1CCN(C2CCC3CCC2C3)CC1` (stereo not drawn) [Compound 221], in assay [1], the Emax was in the range of 25 to 100% and the “M1 Activity” value is given as “+ (activity was measured to be greater than 5.0 μM)”. In assay [2], the Emax is < 25% and the “M2 Activity” value is “+ (activity was measured to be greater than 5.0 μM)”. Further, in assay [3], the Emax is < 25% and the “M3 Activity” value is reported as “+ (activity was measured to be greater than 5.0 μM)”. In addition, in assay [4], the Emax was in the range of 25 to 100% and the “M4 Activity” value is given as “+++ (activity was measured to be less than 1.0 μM)”.

For `COc1ccc(C#CCC(C)C)cc1C1CCN([C@H]2C[C@H]3CC[C@H]2C3)CC1` [Compound 223], in assay [1], the Emax was < 25% and the “M1 Activity” value is “+ (activity was measured to be greater than 5.0 μM)”. In assay [2], the Emax was < 25% and the “M2 Activity” value was “+ (activity was measured to be greater than 5.0 μM)”. Besides, in assay [3], the maximal response (Emax) is < 25% and the “M3 Activity” value was “+ (activity was measured to be greater than 5.0 μM)”. In assay [4], the Emax fell in the range of 25 to 100% and the “M4 Activity” value is recorded as “+ (activity was measured to be greater than 5.0 μM)”.

In the case of `COc1ccccc1C1CCN(C2CCCCCC2)CC1` [Compound 224], in assay [1], the Emax lay within 25 to 100% and the “M1 Activity” value is reported as “+ (activity was measured to be greater than 5.0 μM)”. For the same compound, in assay [2], the Emax was < 25% and the “M2 Activity” value is “+ (activity was measured to be greater than 5.0 μM)”. In addition, in assay [3], the Emax is < 25% and the “M3 Activity” value was “+ (activity was measured to be greater than 5.0 μM)”. Besides, in assay [4], the Emax lay in the range of 25 to 100% and the “M4 Activity” value is recorded as “+++ (activity was measured to be less than 1.0 μM)”.

With `Cc1cccc(C2CCN(C3C[C@H]4CC[C@H]3C4)CC2)c1C` (stereo partly drawn) [Compound 225], in assay [1], the Emax is 25 to 100% and the “M1 Activity” value is on record as “+ (activity was measured to be greater than 5.0 μM)”. Further, in assay [2], the Emax is < 25% and the “M2 Activity” value is given as “+ (activity was measured to be greater than 5.0 μM)”. In assay [3], the maximum response (Emax) was < 25% and the “M3 Activity” value is given as “+ (activity was measured to be greater than 5.0 μM)”. Besides, in assay [4], the maximal response (Emax) is 25 to 100% and the “M4 Activity” value was “++ (activity was measured to be from 1.0 μM to 5.0 μM)”.

With `CCOC(=O)N1C2CCC1CC(N1CCC(c3cc(-c4ccc(C(=O)NC)c(Cl)c4)ccc3OC)CC1)C2` (stereo not drawn) [Compound 226], in assay [1], the Emax was < 25% and the “M1 Activity” value is on record as “+ (activity was measured to be greater than 5.0 μM)”. In addition, in assay [2], the maximal response (Emax) was < 25% and the “M2 Activity” value was “+ (activity was measured to be greater than 5.0 μM)”. Further, in assay [3], the Emax was < 25% and the “M3 Activity” value is “+ (activity was measured to be greater than 5.0 μM)”. In addition, in assay [4], the Emax lay in the range of 25 to 100% and the “M4 Activity” value is recorded as “++ (activity was measured to be from 1.0 μM to 5.0 μM)”.

In the case of `COc1cc(F)c(F)cc1C1CCN([C@H]2C[C@H]3CC[C@H]2C3)CC1` [Compound 227], in assay [1], the Emax lay within 25 to 100% and the “M1 Activity” value was “+ (activity was measured to be greater than 5.0 μM)”. In addition, in assay [2], the Emax was < 25% and the “M2 Activity” value was “+ (activity was measured to be greater than 5.0 μM)”. Also, in assay [3], the Emax is < 25% and the “M3 Activity” value is recorded as “+ (activity was measured to be greater than 5.0 μM)”. Moreover, in assay [4], the maximal response (Emax) was in the range of 25 to 100% and the “M4 Activity” value is “++ (activity was measured to be from 1.0 μM to 5.0 μM)”.

In the case of `COc1ccc(C(=O)c2ccsc2)cc1C1CCN([C@H]2C[C@H]3CC[C@H]2C3)CC1` [Compound 230], in assay [1], the Emax was < 25% and the “M1 Activity” value is given as “+ (activity was measured to be greater than 5.0 μM)”. In assay [2], the Emax was < 25% and the “M2 Activity” value is listed as “+ (activity was measured to be greater than 5.0 μM)”. In assay [3], the Emax was < 25% and the “M3 Activity” value is on record as “+ (activity was measured to be greater than 5.0 μM)”. In addition, in assay [4], the maximal response (Emax) lay in the range of 25 to 100% and the “M4 Activity” value is recorded as “+++ (activity was measured to be less than 1.0 μM)”.

As for `COc1ccc(F)cc1C1(O)CCN(CC2CCOCC2)CC1` [Compound 231], in assay [1], the Emax was < 25% and the “M1 Activity” value is reported as “+ (activity was measured to be greater than 5.0 μM)”. Also, in assay [2], the Emax was < 25% and the “M2 Activity” value is on record as “+ (activity was measured to be greater than 5.0 μM)”. In assay [3], the maximum response (Emax) is < 25% and the “M3 Activity” value is “+ (activity was measured to be greater than 5.0 μM)”. Further, in assay [4], the maximum response (Emax) is < 25% and the “M4 Activity” value is “+ (activity was measured to be greater than 5.0 μM)”.

`COc1ccccc1C1CCN(CC2CCCC2)CC1` [Compound 232]: in assay [1], the maximum response (Emax) was in the range of 25 to 100% and the “M1 Activity” value is on record as “+ (activity was measured to be greater than 5.0 μM)”. In assay [2], the Emax was < 25% and the “M2 Activity” value was “+ (activity was measured to be greater than 5.0 μM)”. Besides, in assay [3], the Emax is < 25% and the “M3 Activity” value was “+ (activity was measured to be greater than 5.0 μM)”. Besides, in assay [4], the maximal response (Emax) lay within 25 to 100% and the “M4 Activity” value was “++ (activity was measured to be from 1.0 μM to 5.0 μM)”.

For `COc1ccccc1C1CCN(CC2CCOCC2)CC1` [Compound 233], in assay [1], the maximal response (Emax) lay in the range of 25 to 100% and the “M1 Activity” value was “+ (activity was measured to be greater than 5.0 μM)”. In assay [2], the Emax was < 25% and the “M2 Activity” value was “+ (activity was measured to be greater than 5.0 μM)”. In addition, in assay [3], the Emax was < 25% and the “M3 Activity” value is reported as “+ (activity was measured to be greater than 5.0 μM)”. Besides, in assay [4], the Emax lay in the range of 25 to 100% and the “M4 Activity” value is listed as “++ (activity was measured to be from 1.0 μM to 5.0 μM)”.

Consider `COc1ccccc1C1CCN(C2CCC(c3ccccc3)CC2)CC1` (stereo not drawn) [Compound 234], for which, in assay [1], the Emax is < 25% and the “M1 Activity” value is given as “+ (activity was measured to be greater than 5.0 μM)”. Further, in assay [2], the Emax was < 25% and the “M2 Activity” value is “+ (activity was measured to be greater than 5.0 μM)”. In assay [3], the Emax is < 25% and the “M3 Activity” value is “+ (activity was measured to be greater than 5.0 μM)”. In assay [4], the Emax is < 25% and the “M4 Activity” value is reported as “+ (activity was measured to be greater than 5.0 μM)”.

For `COc1ccccc1C1CCN(C2CCOCC2)CC1O` (stereo not drawn) [Compound 235], in assay [1], the Emax is 25 to 100% and the “M1 Activity” value was “+ (activity was measured to be greater than 5.0 μM)”. In assay [2], the Emax is < 25% and the “M2 Activity” value is “+ (activity was measured to be greater than 5.0 μM)”. Also, in assay [3], the Emax is < 25% and the “M3 Activity” value was “+ (activity was measured to be greater than 5.0 μM)”. Besides, in assay [4], the Emax fell in the range of 25 to 100% and the “M4 Activity” value is listed as “+ (activity was measured to be greater than 5.0 μM)”.
